Laboratory results: paper PMC8843100, “Development of newly synthesised quinazolinone-based CDK2 inhibitors with potent efficacy against melanoma” (Journal of Enzyme Inhibition and Medicinal Chemistry, 2022)

Tests used:
Assay in all cases: NCI-60 single dose screen, sulforhodamine B
Format in all cases: cell-based, human
BT-549 = settings: Breast cancer BT-549; single dose 10^−5 M
Protocol: (§1) In this research, all of the newly synthesised quinazolinones were subjected to in vitro anticancer screening by the National Cancer Institute (USA) against 60 different human cell lines including leukaemia, non-small cell lung cancer, colon cancer, CNS cancer, melanoma, ovarian cancer, renal cancer, prostate cancer, and breast cancer. The tested compounds were evaluated at a single dose (10^−5 M). […] Regarding the benzenesulfonamide counterparts, the introduction of an electron-withdrawing group on the benzenesulfonamide moiety increased the inhibitory activity on the glioblastoma cell line SNB-75 as depicted by the chloro derivative 5c (GI% = 63.09) which was higher than that of the unsubstituted derivative 5a (GI% = 40.06) and the methyl derivative 5b (GI% = 33.03).
(§2) 1. Cytotoxicity screening against a panel of 60 human tumor cell lines
(§3) All the compounds were selected for NCI-60 Human Tumor Cell Lines Screen by the Developmental Therapeutics Program (DTP) at the National Cancer Institute (NCI), Maryland, USA. The operation of this screen utilizes 60 different human tumor cell lines, representing leukemia, non-small-cell lung cancer, colon cancer, CNS cancer, melanoma, ovarian cancer, renal cancer, prostate cancer and breas t cancer.
(§4) The compounds were supplied as dry powder and a single concentration is tested in all 60 cell lines at a single dose of 10 µM solution in dimethyl sulfoxide (DMSO) using Sulforhodamine B assay. Briefly, cells are seeded in 96 well plates at an appropriate density and incubated for 1 day. After 1 day, some of the plates are processed to determine the density time zero. To the remaining plates, compounds are added at 10 µM concentration. Plates are incubated a further 2 days, then fixed and staine d with sulphorhodamine B. Growth inhibition is calculated relative to cells without drug treatment and the time zero control. The use of a time zero control allows the determination of cell kill as well as net growth inhibition. […]

HCC-2998 = settings: Colon cancer HCC-2998; single dose 10^−5 M
Protocol: as §1, §2, §3, §4

HCT-116 = settings: Colon cancer HCT-116; single dose 10^−5 M
Protocol: as §1, §2, §3, §4

HCT-15 = settings: Colon cancer HCT-15; single dose 10^−5 M
Protocol: as §1, §2, §3, §4

HOP-62 = settings: Non-small cell lung cancer HOP-62; single dose 10^−5 M
Protocol: as §1, §2, §3, §4

HOP-92 = settings: Non-small cell lung cancer HOP-92; single dose 10^−5 M
Protocol: as §1, §2, §3, §4

HS 578T = settings: Breast cancer HS 578T; single dose 10^−5 M
Protocol: as §1, §2, §3, §4

HT29 = settings: Colon cancer HT29; single dose 10^−5 M
Protocol: as §1, §2, §3, §4

KM12 = settings: Colon cancer KM12; single dose 10^−5 M
Protocol: as §1, §2, §3, §4

MALME-3M = settings: Melanoma MALME-3M; single dose 10^−5 M
Protocol: as §1, §2, §3, §4

MDA-MB-231/ATCC = settings: Breast cancer MDA-MB-231/ATCC; single dose 10^−5 M
Protocol: as §1, §2, §3, §4

MDA-MB-435 = settings: Melanoma MDA-MB-435; single dose 10^−5 M
Protocol: as §1, §2, §3, §4

MOLT-4 = settings: Leukaemia MOLT-4; single dose 10^−5 M
Protocol: as §1, §2, §3, §4

NCI-H322M = settings: Non-small cell lung cancer NCI-H322M; single dose 10^−5 M
Protocol: as §1, §2, §3, §4

NCI-H460 = settings: Non-small cell lung cancer NCI-H460; single dose 10^−5 M
Protocol: as §1, §2, §3, §4

NCI-H522 = settings: Non-small cell lung cancer NCI-H522; single dose 10^−5 M
Protocol: as §1, §2, §3, §4

NCI/ADR-RES = settings: Ovarian cancer NCI/ADR-RES; single dose 10^−5 M
Protocol: as §1, §2, §3, §4

OVCAR-3 = settings: Ovarian cancer OVCAR-3; single dose 10^−5 M
Protocol: as §1, §2, §3, §4

OVCAR-8 = settings: Ovarian cancer OVCAR-8; single dose 10^−5 M
Protocol: as §1, §2, §3, §4

PC-3 = settings: Prostate cancer PC-3; single dose 10^−5 M
Protocol: as §1, §2, §3, §4

RPMI-8226 = settings: Leukaemia RPMI-8226; single dose 10^−5 M
Protocol: as §1, §2, §3, §4

RXF 393 = settings: Renal cancer RXF 393; single dose 10^−5 M
Protocol: as §1, §2, §3, §4

SF-268 = settings: CNS cancer SF-268; single dose 10^−5 M
Protocol: as §1, §2, §3, §4

SF-295 = settings: CNS cancer SF-295; single dose 10^−5 M
Protocol: as §1, §2, §3, §4

SN12C = settings: Renal cancer SN12C; single dose 10^−5 M
Protocol: as §1, §2, §3, §4

SNB-19 = settings: CNS cancer SNB-19; single dose 10^−5 M
Protocol: as §1, §2, §3, §4

SNB-75 = settings: CNS cancer SNB-75; single dose 10^−5 M
Protocol: as §1, §2, §3, §4

SR = settings: Leukaemia SR; single dose 10^−5 M
Protocol: as §1, §2, §3, §4

T-47D = settings: Breast cancer T-47D; single dose 10^−5 M
Protocol: as §1, §2, §3, §4

U251 = settings: CNS cancer U251; single dose 10^−5 M
Protocol: as §1, §2, §3, §4

UACC-62 = settings: Melanoma UACC-62; single dose 10^−5 M
Protocol: as §1, §2, §3, §4

SMILES | GI% at 10^−5 M (BT-549) | GI% at 10^−5 M (HCC-2998) | GI% at 10^−5 M (HCT-116) | GI% at 10^−5 M (HCT-15) | GI% at 10^−5 M (HOP-62) | GI% at 10^−5 M (HOP-92) | GI% at 10^−5 M (HS 578T) | GI% at 10^−5 M (HT29) | GI% at 10^−5 M (KM12) | GI% at 10^−5 M (MALME-3M) | GI% at 10^−5 M (MDA-MB-231/ATCC) | GI% at 10^−5 M (MDA-MB-435) | GI% at 10^−5 M (MOLT-4) | GI% at 10^−5 M (NCI-H322M) | GI% at 10^−5 M (NCI-H460) | GI% at 10^−5 M (NCI-H522) | GI% at 10^−5 M (NCI/ADR-RES) | GI% at 10^−5 M (OVCAR-3) | GI% at 10^−5 M (OVCAR-8) | GI% at 10^−5 M (PC-3) | further results
CN1CCN(CC(=O)Nn2c(COc3ccccc3)nc3ccccc3c2=O)CC1 [Compound 8a, 2–(4-methylpiperazin-1-yl)-N-(4-oxo-2-(phenoxymethyl)quinazolin-3(4H)-yl)acetamide] | – (– means GI < 10%) | 10.06% | 18.15% | 44.04% | – (– means GI < 10%) | – (– means GI < 10%) | 13.94% | 26.89% | 55.03% | 20.47% | 21.65% | 94.15% | 11.86% | – (– means GI < 10%) | – (– means GI < 10%) | 24.6% | 28.41% | – (– means GI < 10%) | – (– means GI < 10%) | – (– means GI < 10%) | GI% at 10^−5 M (RPMI-8226): 23.17%; GI% at 10^−5 M (RXF 393): – (– means GI < 10%); GI% at 10^−5 M (SF-268): – (– means GI < 10%); GI% at 10^−5 M (SF-295): – (– means GI < 10%); GI% at 10^−5 M (SN12C): – (– means GI < 10%); GI% at 10^−5 M (SNB-19): 13.65%; GI% at 10^−5 M (SNB-75): 27.37%; GI% at 10^−5 M (SR): 69.55%; GI% at 10^−5 M (T-47D): 32.2%; GI% at 10^−5 M (U251): 18.55%; GI% at 10^−5 M (UACC-62): 30.69%
O=C(CN1CCN(c2ccccc2)CC1)Nn1c(COc2ccccc2)nc2ccccc2c1=O [Compound 8b, N-(4-oxo-2-(phenoxymethyl)quinazolin-3(4H)-yl)-2–(4-phenylpiperazin-1-yl)acetamid] | – (– means GI < 10%) | – (– means GI < 10%) | – (– means GI < 10%) | – (– means GI < 10%) | – (– means GI < 10%) | – (– means GI < 10%) | 10.4% | – (– means GI < 10%) | – (– means GI < 10%) | – (– means GI < 10%) | 10.38% | – (– means GI < 10%) | – (– means GI < 10%) | – (– means GI < 10%) | – (– means GI < 10%) | 11.45% | – (– means GI < 10%) | – (– means GI < 10%) | – (– means GI < 10%) | – (– means GI < 10%) | GI% at 10^−5 M (RPMI-8226): – (– means GI < 10%); GI% at 10^−5 M (RXF 393): – (– means GI < 10%); GI% at 10^−5 M (SF-268): – (– means GI < 10%); GI% at 10^−5 M (SF-295): – (– means GI < 10%); GI% at 10^−5 M (SN12C): – (– means GI < 10%); GI% at 10^−5 M (SNB-19): – (– means GI < 10%); GI% at 10^−5 M (SNB-75): – (– means GI < 10%); GI% at 10^−5 M (SR): – (– means GI < 10%); GI% at 10^−5 M (T-47D): – (– means GI < 10%); GI% at 10^−5 M (U251): – (– means GI < 10%); GI% at 10^−5 M (UACC-62): – (– means GI < 10%)
COc1ccc(N2CCN(CC(=O)Nn3c(COc4ccccc4)nc4ccccc4c3=O)CC2)cc1 [Compound 8c, 2–(4-(4-methoxyphenyl)piperazin-1-yl)-N-(4-oxo-2-(phenoxymethyl)quinazolin-3(4H)-yl)acetamide] | – (– means GI < 10%) | – (– means GI < 10%) | – (– means GI < 10%) | – (– means GI < 10%) | – (– means GI < 10%) | – (– means GI < 10%) | – (– means GI < 10%) | – (– means GI < 10%) | – (– means GI < 10%) | – (– means GI < 10%) | – (– means GI < 10%) | – (– means GI < 10%) | – (– means GI < 10%) | – (– means GI < 10%) | – (– means GI < 10%) | 10.67% | – (– means GI < 10%) | – (– means GI < 10%) | – (– means GI < 10%) | 14.02% | GI% at 10^−5 M (RPMI-8226): – (– means GI < 10%); GI% at 10^−5 M (RXF 393): – (– means GI < 10%); GI% at 10^−5 M (SF-268): – (– means GI < 10%); GI% at 10^−5 M (SF-295): – (– means GI < 10%); GI% at 10^−5 M (SN12C): – (– means GI < 10%); GI% at 10^−5 M (SNB-19): – (– means GI < 10%); GI% at 10^−5 M (SNB-75): 26.47%; GI% at 10^−5 M (SR): 12.84%; GI% at 10^−5 M (T-47D): – (– means GI < 10%); GI% at 10^−5 M (U251): – (– means GI < 10%); GI% at 10^−5 M (UACC-62): – (– means GI < 10%)
